Source: publication doi:10.1101/2024.02.16.580709v1, “Developing Hybrid Systems to Address O2 Uncoupling in Multi-Component Rieske Oxygenases” (biorxiv, 2024)

Columns and labels:
Assay type in all cases: biochemical
VanB = target: T1, VanB (Pseudomonas aeruginosa, UniProt Q9HUQ8); test: ABTS-HRP assay of H2O2 formed; details: 24 h; GDH-based NADH regeneration; O2 uncoupling, no ferredoxin
T1 construct: codon-optimised gene in pET-28a(+), N-terminal 6xHis tag, E. coli JM109(DE3), Ni-sepharose purified; flavin and [2Fe-2S] domains
T1 sequence (Q9HUQ8 1-317): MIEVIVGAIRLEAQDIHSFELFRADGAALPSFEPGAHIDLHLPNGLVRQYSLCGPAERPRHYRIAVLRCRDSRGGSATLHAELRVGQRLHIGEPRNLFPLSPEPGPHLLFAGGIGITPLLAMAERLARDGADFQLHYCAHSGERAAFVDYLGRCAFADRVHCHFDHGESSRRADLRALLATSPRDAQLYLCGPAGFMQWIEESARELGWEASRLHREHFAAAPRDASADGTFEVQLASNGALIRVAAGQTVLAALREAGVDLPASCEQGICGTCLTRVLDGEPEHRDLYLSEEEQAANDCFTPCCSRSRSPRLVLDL

PDR = target: T2, PDR (Burkholderia cepacia, UniProt P33164); test: ABTS-HRP assay of H2O2 formed; details: 24 h; GDH-based NADH regeneration; O2 uncoupling, no ferredoxin
T2 construct: gene ophA1; codon-optimised gene in pET-28a(+), N-terminal 6xHis tag, E. coli JM109(DE3), Ni-sepharose purified; flavin and [2Fe-2S] domains
T2 sequence (P33164 2-322): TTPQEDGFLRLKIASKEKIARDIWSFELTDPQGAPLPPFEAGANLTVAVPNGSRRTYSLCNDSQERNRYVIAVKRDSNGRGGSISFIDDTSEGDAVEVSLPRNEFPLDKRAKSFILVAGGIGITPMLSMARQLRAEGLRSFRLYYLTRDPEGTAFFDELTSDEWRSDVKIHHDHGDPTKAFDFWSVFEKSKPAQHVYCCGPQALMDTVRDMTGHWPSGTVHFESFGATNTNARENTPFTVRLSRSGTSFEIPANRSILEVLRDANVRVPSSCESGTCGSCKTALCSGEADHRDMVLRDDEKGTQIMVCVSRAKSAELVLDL

[1] = target: T3, CDO (CDO-WT; CDO-Oxy with CDO-Fd and CDO-Red) (Pseudomonas fluorescens, UniProt Q51743); test: GC-FID product quantification; details: 30 °C, 24 h, pH 7.2; NAD+ with GDH/glucose NADH regeneration, catalase, 1 mM DTT; O2
T3 construct: gene cumA1; codon-optimised genes in pET-28a(+), N-terminal 6xHis tag, E. coli JM109(DE3), Ni-sepharose purified; components mixed in vitro; with Cumene dioxygenase terminal oxygenase small (beta) subunit; Cumene dioxygenase ferredoxin; Cumene dioxygenase ferredoxin reductase
T3 sequence (Q51743 1-459): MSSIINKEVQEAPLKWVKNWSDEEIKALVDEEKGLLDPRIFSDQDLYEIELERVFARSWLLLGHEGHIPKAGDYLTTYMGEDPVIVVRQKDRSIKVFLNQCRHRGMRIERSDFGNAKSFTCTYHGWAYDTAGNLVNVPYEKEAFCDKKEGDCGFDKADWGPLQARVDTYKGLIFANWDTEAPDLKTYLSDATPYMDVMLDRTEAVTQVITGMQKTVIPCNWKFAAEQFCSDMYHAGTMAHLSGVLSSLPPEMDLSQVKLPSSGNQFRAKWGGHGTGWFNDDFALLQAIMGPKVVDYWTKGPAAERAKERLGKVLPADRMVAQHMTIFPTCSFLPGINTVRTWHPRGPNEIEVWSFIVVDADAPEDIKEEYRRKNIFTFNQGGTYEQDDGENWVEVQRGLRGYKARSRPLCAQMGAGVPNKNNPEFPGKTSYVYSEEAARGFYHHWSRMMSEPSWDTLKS
T3 sequence (Q51744 1-186 partner): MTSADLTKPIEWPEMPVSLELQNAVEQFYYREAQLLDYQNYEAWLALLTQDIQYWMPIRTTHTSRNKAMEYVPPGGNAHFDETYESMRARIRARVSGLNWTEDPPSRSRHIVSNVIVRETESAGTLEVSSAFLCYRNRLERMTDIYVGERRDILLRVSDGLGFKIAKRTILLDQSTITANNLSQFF

SMILES: NC(=O)C1=CN([C@@H]2O[C@H](COP(=O)(O)OP(=O)(O)OC[C@H]3O[C@@H](n4cnc5c(N)ncnc54)[C@H](O)[C@@H]3O)[C@@H](O)[C@H]2O)C=CC1 [NADH]
- ABTS-HRP assay of H2O2 formed (VanB): the H2O2 formation by PDR and VanB was evaluated analogously
- ABTS-HRP assay of H2O2 formed (PDR): the H2O2 formation by PDR and VanB was evaluated analogously

SMILES: C1=Cc2ccccc2C1 [compound 1, indene]
- GC-FID product quantification [1]: product formation in in vitro reactions with complete CDO-WT
